Measured values reported in patent US20040038958A1, “Topical treatment of skin diseases” (priority 2002, published 2004).
Values joined by “and” are separate entries in the source; they are usually repeats but may differ in a detail not shown here. Equal entries are not always repeated. “Also recorded” adds a separate entry of the source.

What was measured:
[1] = Penetration of 14C AWD 12-281 through murine back skin (Franz diffusion cell); format: in vitro ADME, mouse
Method: FIG. 1: Cutaneous permeation of ^14C AWD 12-281 measured using a “Franz” diffusion cell and murine back skin. Activity of ^14C AWD 12-281 was measured in […] during 360 min incubation. Results of two independent experiments. 15 μl (110322970 dpm) of ^14C AWD 12-281 (dissolved in acetone/DMSO 1:1) was applied to the shaved skin.
The ability of ^14C AWD 12-281 to penetrate through murine back skin was tested in a diffusion cell (Franz cell). Dry shaved murine back skin was set onto the diffusion cell so that 1.5 cm (diameter) of the dermal side were in contact with warmed (34° C.) buffer (bovine serum). 15 μl (110322970 dpm) of ^14C AWD 12-281 (dissolved in acetone/DMSO 1:1) were applied to the shaved skin. Samples were taken 15, 60, 120, 180, 240, 300, 360 min and the radioactivity was measured in a β counter (Beckman, Munich, Germany). The experiment was performed twice.

PDE4 = conditions: Griswold et al., 1998, Kuss et al., 2002; cited from earlier work
interleukin 4 = assay: IL-4 in homogenized mouse ears after TDI challenge (ELISA); format: in vivo, BALB/c-mice
Method: (§1) One part of the collected ears was fixed in 4% formaldehyde for histological section and stained with haematoxylin-eosin with respect to dermal thickness and granulocyte accumulation. These parameters were measured in 10 fields at 40 times magnification. The remaining tissue was shock-frozen and stored in liquid nitrogen immediately after sampling. For the determination of biochemical parameters, the mice ears were homogenized under liquid nitrogen. The homogenates were taken in 200 μl RPMI 1640 medium and the protease inhibitor Pefabloc® (1 mmol) was added and the samples were mixed intensively. After centrifugation (10000 g, 10 min, 4° C.), the supernatant was collected and the protein content was determined. The samples were stored at −80° C. until the cytokines were determined. Interleukin (IL) 4, IL-6 and MIP-2 were measured in the samples by ELISA using commercially available kits according to manufacturers instructions.

interleukin 6 = assay: IL-6 in homogenized mouse ears after TDI challenge (ELISA); format: in vivo, BALB/c-mice
Method: as §1

[2] = tested on: granulocyte influx in the dermis of mice ears; assay: Histological examination of mouse ear skin after TDI challenge; format: in vivo, BALB/c-mice
Method: as §1

[3] = tested on: sensitized Brown Norway rats; conditions: late phase airway reaction to antigen; Kuss et al., 2002; cited from earlier work
domestic pigs = conditions: Kuss et al., 2002; cited from earlier work
[4] = tested on: mice sensitized to TDI (long term exposure); assay: TDI induced ear swelling after long term (120 days) repeated exposure sensitization; format: in vivo; conditions: 120 days sensitization, AWD 12-281 3% 1 h after challenge
Method: FIG. 4: Effect of AWD 12-281 on TDI induced ear swelling in mice sensitized to TDI using a long term (120 days) repeated exposure sensitization paradigm. Bars represent ear swelling 1, 5 and 24 h after TDI challenge.
Furthermore, an experiment was carried out to obtain information on the therapeutic effects of AWD 12-281 in a model of long term exposure to TDI. Thus 10 mice were treated with 100 μl 0.5% TDI on the abdominal skin in intervals of 10 days for 120 days. Ten days after the last abdominal TDI treatment, mice were challenged on the left ear with 20 μl 0.5% TDI, split in 10 μl onto the outer and inner surface of the ear, respectively. One hour after TDI challenge 5 mice were treated with AWD 12-281 (3%), 5 mice were sham treated. Before as well as 1, 5 and 24 h after challenge, the ear thickness was measured.

[5] = tested on: passively sensitized human airways; conditions: Schmidt et al., 2000; cited from earlier work
human eosinophils = conditions: in vitro; Ezeamuzie, 2001; cited from earlier work
[6] = 24 h after TDI challenge, AWD 12-281 3%, rechallenge
[7] = 24 h after TDI challenge, topical 2 h before challenge, AWD 12-281 1%, cilomilast 3%, diflorasone 0.05%
[8] = AWD 12-281 3%, cilomilast 3%, diflorasone 0.05%, 24 h after TDI challenge

For O=C(Nc1c(Cl)cncc1Cl)C(=O)c1cn(Cc2ccc(F)cc2)c2ccc(O)cc12 [AWD 12-281, N-(3,5-Dichloro-4-pyridinyl)-2-[1-(4-fluoro-benzyl)-5-hydroxy-1 H-indol-3-yl]-2-oxoacetamide], the “amount of radioactivity measured in buffer, % of the total activity (cumulative absorption)” value ([1]; 14C AWD 12-281 in acetone/DMSO 1:1 on shaved murine back skin, 360 min (6 h) after application, two independent experiments) is listed as 0.22% and 0.08%, the “absorption compared to hydrocortisone” value ([1]; AWD 12-281 murine skin after 6 h vs hydrocortisone in human skin in Franz cells (Hueber et al., 1994)) is listed as “tenfold higher absorption compared to hydrocortisone” and the “IC50 for PDE4 relative to cilomilast” value (PDE4) is listed as “about ten times lower than that of cilomilast”. The “concentration of interleukin 4 in mouse skin” value (interleukin 4; [6]) was “inhibited the increase significantly”, the “concentration of interleukin 4 in homogenized mouse ears” value (interleukin 4; [7]) was “reduced the increase slightly; also recorded: slight inhibitory effect” and the “IL-4, mean inhibition (%) of the TDI induced synthesis” value (interleukin 4; [8]) was 80% and 81%. For the same molecule, the IL-4 (interleukin 4; AWD 12-281 3%, homogenized mouse ears 24 h after TDI challenge (rechallenge), vehicle control 67 ± 2, mean ± s.e.) was 12 ± 3 pg/400 µg protein, the “concentration of interleukin 6 in mouse skin” value (interleukin 6; [6]) was “inhibited this response significantly” and the “concentration of interleukin 6 in homogenized mouse ears” value (interleukin 6; [7]) was “weak significantly; also recorded: inhibited this response significantly; also recorded: only a slight effect”. The “IL-6, mean inhibition (%) of the TDI induced synthesis” value (interleukin 6; [8]) was 52%, the IL-6 (interleukin 6; AWD 12-281 3%, homogenized mouse ears 24 h after TDI challenge (rechallenge), vehicle control 89 ± 5, mean ± s.e.) was 42 ± 6 pg/400 µg protein and the “inflammatory cells and vascular leakage, histological examination” value ([2]; AWD 12-281 (3%) treated mouse ears, long term exposure study (not shown)) was “nearly total absense of inflammatory cells and vascular leakage”. The “edema and influx of inflammatory cells (mainly granulocytes)” value ([2]; mouse ear skin 24 h after TDI challenge, topical treatment) was “inhibited these inflammatory processes markedly”, the “accumulation of eosinophils in bronchoalveolar lavage” value [3] was “significantly reduced the accumulation of eosinophils” and the “LPS induced lung neutrophilia” value (domestic pigs) was “inhibitory effects”. For the same molecule, the “TDI induced ear swelling” value ([4]; 1 and 5 h after challenge) was “no significant difference between the groups”, the “TDI induced ear swelling” value ([4]; 5 h after challenge) was “slight inhibition” and the “TDI induced ear swelling” value ([4]; 24 h after challenge) was “nearly abolished the TDI induced swelling; also recorded: inhibited the swelling significantly”. The “bronchospasmogenic effect of an allergen” value [5] was “significantly reduced the bronchospasmogenic effect of an allergen” and the “degranulation of human eosinophils” value (human eosinophils) was “inhibited the degranulation”.
